Reference: US20060217294A1, “Compounds binding to p-selectin” (YAMANOUCHI EUROPE B.V., priority 2002, published 2006)
pIC50: −log10 of the molar value. Where two headings read alike, the source gives them in different places. Numbered stars: 1 amine (or outer) side, 2 acyl side, 3 side chain; on linkers, the order of the positions; unused ones are H or OH. Square brackets hold non-standard residues; d marks the D form. Peptide text beside a SMILES is read from it. * marks the point of attachment. Trimesoyl = O=C(c1cc(C(=O)[*:2])cc(C(=O)[*:3])c1)[*:1]; Thiophene2carbonyl = O=C(c1cccs1)*; 1Naphthoyl = O=C(c1cccc2ccccc12)*; Galloyl = O=C(c1cc(O)c(O)c(O)c1)*; Trx = NC[C@H]1CC[C@H](C(=O)O)CC1; 4Amb = NCc1ccc(C(=O)O)cc1; 4Abz = Nc1ccc(C(=O)O)cc1; Butyryl = CCCC(=O)*; Bz = O=C(c1ccccc1)*; X1 = CN(C)CCCC(=O)*; Ahx = NCCCCCC(=O)O; GABA = NCCCC(=O)O

How the values were obtained:
human P-selectin [1] = target: T1, human P-selectin (Homo sapiens, UniProt P16109); experiment: Competition assay with TM11-PO (competition ELISA); assay type: binding
T1 construct: IgG-Fc (fusion partner); purchased R&D Systems Europe Ltd., Abingdon, United Kingdom
T1 sequence (P16109 with tags, fused parts or gaps limits assumed): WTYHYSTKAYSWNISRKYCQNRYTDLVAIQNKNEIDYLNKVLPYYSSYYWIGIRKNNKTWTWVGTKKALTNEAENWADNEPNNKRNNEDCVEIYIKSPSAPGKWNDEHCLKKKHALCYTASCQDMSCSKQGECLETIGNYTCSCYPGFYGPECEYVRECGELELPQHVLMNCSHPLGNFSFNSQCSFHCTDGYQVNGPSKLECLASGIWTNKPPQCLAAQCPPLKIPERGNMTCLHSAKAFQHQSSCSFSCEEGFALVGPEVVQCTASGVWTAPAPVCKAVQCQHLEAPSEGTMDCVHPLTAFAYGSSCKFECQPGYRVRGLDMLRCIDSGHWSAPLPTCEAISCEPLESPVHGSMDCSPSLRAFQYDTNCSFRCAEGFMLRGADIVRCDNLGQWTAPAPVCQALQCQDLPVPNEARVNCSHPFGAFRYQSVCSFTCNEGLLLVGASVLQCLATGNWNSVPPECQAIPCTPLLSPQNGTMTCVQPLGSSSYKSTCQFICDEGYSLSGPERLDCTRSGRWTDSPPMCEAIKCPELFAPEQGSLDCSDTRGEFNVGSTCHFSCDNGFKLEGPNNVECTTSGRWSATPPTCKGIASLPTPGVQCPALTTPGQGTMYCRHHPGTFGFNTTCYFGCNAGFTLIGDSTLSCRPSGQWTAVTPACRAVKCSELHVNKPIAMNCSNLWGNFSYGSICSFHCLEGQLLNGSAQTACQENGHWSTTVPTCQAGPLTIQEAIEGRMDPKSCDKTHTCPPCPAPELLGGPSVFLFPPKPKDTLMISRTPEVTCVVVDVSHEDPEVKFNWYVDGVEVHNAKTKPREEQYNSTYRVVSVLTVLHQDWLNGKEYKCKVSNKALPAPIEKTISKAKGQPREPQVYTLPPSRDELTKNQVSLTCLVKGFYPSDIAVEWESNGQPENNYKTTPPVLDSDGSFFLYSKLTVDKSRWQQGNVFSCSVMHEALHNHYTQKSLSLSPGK
Experimental: Compounds according to the invention, as prepared in examples 1, 2 and 3 and some reference peptide compounds were assayed for its ability to inhibit TM11-PO binding to human P-selectin. […] For competition studies, a 96 wells microtiter plate (high binding, flat bottom, Costar, Corning, U.S.A.) was coated overnight at 4° C. with 10 μg/ml goat anti-human IgG (Fc specific) (Sigma-Aldrich, Zwijndrecht, the Netherlands) in coating buffer (50 mM NaHCO3, pH 9.6). Subsequently, wells were washed with assay buffer and incubated for 1 hour at 37° C. with blocking buffer (3% BSA in assay buffer). After washing with assay buffer, the wells were incubated for 2 hours at 37° C. with the human P-selectin IgG-Fc chimera (R&D Systems Europe Ltd., Abingdon, United Kingdom) (0.3 μg/ml). Subsequently, wells were washed with assay buffer and incubated for 1 hour at 4° C. with the TM11-PO complex. The wells were washed six times with washing buffer (0.1% Tween 20 in assay buffer). […] (TMB)/hydrogen peroxide (H2O2) (Pierce, Rochford, U.S.A.) was added and wells were incubated at room temperature for 15 minutes. The reaction was halted by addition of 2 M H2SO4 and the absorbance was measured at 450 nm.

human P-selectin [2] = target: T1, human P-selectin; details: Table 2; values marked b, from not pre-published European patent application 01203314.8; read-out: IC50 for human P-selectin as determined by competition Elisa; cited from earlier work
P-selectin = target: T2, P-selectin (Homo sapiens, UniProt P16109); details: described in European patent application No. 01203314.8; read-out: affinity for P-selectin, IC50; cited from earlier work
T2 sequence (P16109 42-830): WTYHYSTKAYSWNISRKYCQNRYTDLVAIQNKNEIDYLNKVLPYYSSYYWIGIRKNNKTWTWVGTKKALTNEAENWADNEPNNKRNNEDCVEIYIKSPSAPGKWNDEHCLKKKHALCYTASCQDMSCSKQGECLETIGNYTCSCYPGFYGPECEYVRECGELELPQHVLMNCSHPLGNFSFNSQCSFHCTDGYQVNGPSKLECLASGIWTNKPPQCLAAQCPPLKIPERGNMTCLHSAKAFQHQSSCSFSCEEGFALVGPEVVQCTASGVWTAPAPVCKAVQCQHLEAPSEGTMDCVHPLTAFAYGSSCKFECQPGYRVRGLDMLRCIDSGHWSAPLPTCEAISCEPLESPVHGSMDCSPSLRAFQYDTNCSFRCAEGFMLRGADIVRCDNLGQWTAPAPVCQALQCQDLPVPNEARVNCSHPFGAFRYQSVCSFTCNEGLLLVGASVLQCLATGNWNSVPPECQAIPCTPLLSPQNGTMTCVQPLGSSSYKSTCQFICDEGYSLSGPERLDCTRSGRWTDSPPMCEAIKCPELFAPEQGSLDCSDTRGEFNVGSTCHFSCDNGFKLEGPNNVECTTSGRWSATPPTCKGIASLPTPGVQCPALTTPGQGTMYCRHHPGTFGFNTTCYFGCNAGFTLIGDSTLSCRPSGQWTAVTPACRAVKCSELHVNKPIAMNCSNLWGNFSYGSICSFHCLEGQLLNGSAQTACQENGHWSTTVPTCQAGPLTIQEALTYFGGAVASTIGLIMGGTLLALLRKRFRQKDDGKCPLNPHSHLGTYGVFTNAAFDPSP

[3] = Table 1, derivatised peptides HPij, inhibition of TM11-PO binding to human P-selectin, read-out: IC50
[4] = Table 3, gallic acid derivatized peptides, mean of at least 3 experiments at 8 concentrations, read-out: IC50 for human P-selectin as determined by competition Elisa

| pIC50 (human P-selectin [1]; [3]) | pIC50 (human P-selectin [1]; [4]) | Compound | other results |
| --- | --- | --- | --- |
| 5.22 | – | CC(C)[C@H](NC(=O)[C@H](CC(=O)O)NC(=O)[C@@H](NC(=O)[C@H](Cc1c[nH]c2ccccc12)NC(=O)[C@@H](N)CCC(=O)O)C(C)C)C(=O)N[C@@H](CCCCNC(=O)c1cc(O)c(O)c(O)c1)C(=O)NCCCC(=O)O [HP06] (H-EWVDVK(Galloyl)[GABA]-OH) | – |
| 5.99 | – | CC(C)[C@H](NC(=O)[C@H](CC(=O)O)NC(=O)[C@@H](NC(=O)[C@H](Cc1c[nH]c2ccccc12)NC(=O)[C@H](CCC(=O)O)NC(=O)c1cc(C(=O)O)cc(C(=O)O)c1)C(C)C)C(=O)N[C@@H](CCCCNC(=O)c1cccc2ccccc12)C(=O)NCCCC(=O)O [HP14] (Trimesoyl-EWVDVK(1Naphthoyl)[GABA]-OH) | – |
| 6.51 | – | CC(C)[C@H](NC(=O)[C@H](CC(=O)O)NC(=O)[C@@H](NC(=O)[C@H](Cc1c[nH]c2ccccc12)NC(=O)[C@H](CCC(=O)O)NC(=O)c1cc(C(=O)O)cc(C(=O)O)c1)C(C)C)C(=O)N[C@@H](CCCCNC(=O)c1cc(O)c(O)c(O)c1)C(=O)NCCCC(=O)O [HP16] (Trimesoyl-EWVDVK(Galloyl)[GABA]-OH) | – |
| 6.35 | – | CC(C)[C@H](NC(=O)[C@H](CC(=O)O)NC(=O)[C@@H](NC(=O)[C@H](Cc1c[nH]c2ccccc12)NC(=O)[C@H](CCC(=O)O)NC(=O)c1cc(C(=O)O)cc(C(=O)O)c1)C(C)C)C(=O)N[C@@H](CCCCNC(=O)c1ccccc1)C(=O)NCCCC(=O)O [HP17] (Trimesoyl-EWVDVK(Bz)[GABA]-OH) | – |
| 5.96 | – | CC(C)[C@H](NC(=O)[C@H](CC(=O)O)NC(=O)[C@@H](NC(=O)[C@H](Cc1c[nH]c2ccccc12)NC(=O)[C@H](CCC(=O)O)NC(=O)c1cc(O)c(O)c(O)c1)C(C)C)C(=O)N[C@@H](CCCCN)C(=O)NCCCC(=O)O [HP60] (Galloyl-EWVDVK[GABA]-OH) | – |
| 6.72 | – | CC(C)[C@H](NC(=O)[C@H](CC(=O)O)NC(=O)[C@@H](NC(=O)[C@H](Cc1c[nH]c2ccccc12)NC(=O)[C@H](CCC(=O)O)NC(=O)c1cc(O)c(O)c(O)c1)C(C)C)C(=O)N[C@@H](CCCCNC(=O)c1cc(C(=O)O)cc(C(=O)O)c1)C(=O)NCCCC(=O)O [HP61] (Galloyl-EWVDVK(Trimesoyl)[GABA]-OH) | – |
| 6.55 | – | CC(C)[C@H](NC(=O)[C@H](CC(=O)O)NC(=O)[C@@H](NC(=O)[C@H](Cc1c[nH]c2ccccc12)NC(=O)[C@H](CCC(=O)O)NC(=O)c1cc(O)c(O)c(O)c1)C(C)C)C(=O)N[C@@H](CCCCNC(=O)CCCN(C)C)C(=O)NCCCC(=O)O [HP62] (Galloyl-EWVDVK(X1)[GABA]-OH) | – |
| 5.47 | – | CC(C)[C@H](NC(=O)[C@H](CC(=O)O)NC(=O)[C@@H](NC(=O)[C@H](Cc1c[nH]c2ccccc12)NC(=O)[C@H](CCC(=O)O)NC(=O)c1cc(O)c(O)c(O)c1)C(C)C)C(=O)N[C@@H](CCCCNC(=O)c1cccs1)C(=O)NCCCC(=O)O [HP63] (Galloyl-EWVDVK(Thiophene2carbonyl)[GABA]-OH) | – |
| 5.63 | – | CCCC(=O)NCCCC[C@H](NC(=O)[C@@H](NC(=O)[C@H](CC(=O)O)NC(=O)[C@@H](NC(=O)[C@H](Cc1c[nH]c2ccccc12)NC(=O)[C@H](CCC(=O)O)NC(=O)c1cc(O)c(O)c(O)c1)C(C)C)C(C)C)C(=O)NCCCC(=O)O [HP65] (Galloyl-EWVDVK(Butyryl)[GABA]-OH) | – |
| – | 7.43 | CC(C)[C@H](NC(=O)[C@H](CC(=O)O)NC(=O)[C@@H](NC(=O)[C@H](Cc1c[nH]c2ccccc12)NC(=O)c1cc(O)c(O)c(O)c1)C(C)C)C(=O)O [Peptide 12, GA-WVDV] (Galloyl-WVDV-OH) | pIC50 (human P-selectin [1]; Table 2, average of at least 3 experiments at 8 concentrations, TM11-PO competition ELISA, read-out: IC50 for human P-selectin as determined by competition Elisa): 7.43 |
| – | 7.74 | CC(C)[C@H](NC(=O)[C@H](CC(=O)O)NC(=O)[C@@H](NC(=O)[C@H](Cc1c[nH]c2ccccc12)NC(=O)CNC(=O)c1cc(O)c(O)c(O)c1)C(C)C)C(=O)O [Peptide 27] (Galloyl-GWVDV-OH) | – |
| – | 7.81 | CC(C)[C@H](NC(=O)[C@H](CC(=O)O)NC(=O)[C@@H](NC(=O)[C@H](Cc1c[nH]c2ccccc12)NC(=O)CCCNC(=O)c1cc(O)c(O)c(O)c1)C(C)C)C(=O)O [Peptide 28] ({Galloyl-GABA}-WVDV-OH) | – |
| – | 7.20 | CC(C)[C@H](NC(=O)[C@H](CC(=O)O)NC(=O)[C@@H](NC(=O)[C@H](Cc1c[nH]c2ccccc12)NC(=O)CCCCCNC(=O)c1cc(O)c(O)c(O)c1)C(C)C)C(=O)O [Peptide 29] ({Galloyl-Ahx}-WVDV-OH) | – |
| – | 6.60 | CC(C)[C@H](NC(=O)[C@H](CC(=O)O)NC(=O)[C@@H](NC(=O)[C@H](Cc1c[nH]c2ccccc12)NC(=O)[C@@H]1CCCN1C(=O)c1cc(O)c(O)c(O)c1)C(C)C)C(=O)O [Peptide 30] (Galloyl-PWVDV-OH) | – |
| – | 6.23 | CC(C)[C@H](NC(=O)[C@H](CC(=O)O)NC(=O)[C@@H](NC(=O)[C@H](Cc1c[nH]c2ccccc12)NC(=O)c1ccc(CNC(=O)c2cc(O)c(O)c(O)c2)cc1)C(C)C)C(=O)O [Peptide 32] ({Galloyl-4Amb}-WVDV-OH) | – |
| – | 6.24 | CC(C)[C@H](NC(=O)[C@H](CC(=O)O)NC(=O)[C@@H](NC(=O)[C@H](Cc1c[nH]c2ccccc12)NC(=O)[C@H]1CC[C@H](CNC(=O)c2cc(O)c(O)c(O)c2)CC1)C(C)C)C(=O)O [Peptide 33] ({Galloyl-Trx}-WVDV-OH) | – |
| – | – | AWVDV [Peptide A131] | pIC50 (human P-selectin [2]): 4.57 |
| – | – | CDVEWVDVSSLEWDLPC [TM11] | pIC50 (human P-selectin [2]): 5.70 |
| – | – | DWVDV [Peptide A129] | pIC50 (human P-selectin [2]): 4.80 |
| – | – | EWVDV [Peptide A29] | pIC50 (human P-selectin [2]): 5.10; pIC50 (P-selectin): ~5.70 |
| – | – | KWVDV [Peptide A130] | pIC50 (human P-selectin [2]): 4.55 |
| – | – | WVDV [Peptide A138] | pIC50 (human P-selectin [2]): < 3.00 |

| Compound | pIC50 (human P-selectin [1]; [3]) | pIC50 (human P-selectin [1]; [4]) | other results |
| --- | --- | --- | --- |
| CC(C)[C@H](NC(=O)[C@H](CC(=O)O)NC(=O)[C@@H](NC(=O)[C@H](Cc1c[nH]c2ccccc12)NC(=O)c1ccc(NC(=O)c2cc(O)c(O)c(O)c2)cc1)C(C)C)C(=O)O [Peptide 31] ({Galloyl-4Abz}-WVDV-OH) | – | < 6.00 | – |
